Assay [1] in a line: Alcoholic fatty liver model, body weight during administration period. The following applies: liquor model. The assay is classed as in vivo, SD rats. On the procedure:
(§1) According to their weight, they were randomly divided into vehicle control group (purified water, ig), model control group (liquor, 10 ml·Kg−1), positive control group (bicyclol, 50 mg·Kg−1, ig), folic acid calcium salt high-dose group (4 mg·Kg−1), folic acid calcium salt medium-dose group (2 mg·Kg−1), folic acid calcium salt low-dose group (1 mg·Kg−1), in half female and half male, and 16 rats in each group. Purified water was used as a negative control, and bicyclol (place of origin: Beijing Xiehe Pharmaceutical Factory, specification: 25 mg/tablet, batch number: H20040467) was used as a positive control drug. Route of administration: all were administered by oral gavage. Dosage of administration: 1 mg·Kg−1, 2 mg·Kg−1, and 4 mg·Kg−1. Frequency of administration: once a day for 60 consecutive days.
(§2) Method of administration: administration started at prescribed doses on the day of modeling for 60 consecutive days and ended at the 60th day. At the same time, rats in each group were weighed every other week during administration period to monitor their body weight changes. On the 61st day, rats were dissected and serum was collected for determination of triglyceride (TG), total cholesterol (TC), malondialdehyde (MDA), superoxide dismutase (SOD) and liver histopathologic examination. The brain tissue of rats was taken out, and hippocampus tissue was separated on ice plate, prepared to homogenate with a mass fraction of 10% with purified water, then the homogenate was centrifuged to obtain supernatant. ELISA was used to detect the levels of inflammatory factors TNF-α and IL-1β in hippocampus tissue with continuous spectrum scanning microplate reader.

The test system of assay [2] is TNF-α. Put plainly: Alcoholic fatty liver model, TNF-α in hippocampus tissue (ELISA). The following applies: liquor model, n=16. It counts as in vivo, SD rats. The method, then:
as §1, §2
(In an ELISA, binding on a coated surface is turned into a signal by an enzyme label.)

Assay [3] concerns IL-1β. Nature of the assay: LPS-induced inflammatory response in astrocytes, IL-1β release (ELISA). It counts as cell-based, Kunming mice. The conditions noted are these: culture supernatant, LPS 1 μg·ml-1 + substance 10 μg·ml-1, 24 h, n=6. The source says: Experiment 9 Inhibition of 5-Methyltetrahydrofolate and Curcumin on LPS-Induced Inflammatory Response in Astrocytes
The cerebral cortex of Kunming mice at 1˜2 d was taken out under aseptic conditions, washed 3 times with cold PBS after removing residual meninges and blood vessels, prepared into single cell suspension by blowing, centrifuged, the supernatant was discarded, and the precipitant was resuspended in AST basic medium (high-sugar DMEM containing 10% FBS). The suspension was inoculated into a culture flask coated with poly-L-lysine (0.1 mg/ml), and cultured in a CO2 incubator. After 24 h, tissue debris and non-adherent cells were removed by replacing the medium. Afterwards, the medium was replaced every 3 days until the cells reached 80% confluence, then the flask was placed on a constant temperature rotary shaker, where the suspension was centrifuged at 180 r/min, 37° C. for 18 h to remove oligodendrocytes and microglia from the upper layer. Then trypsin digestion was used for subculture. […]
LPS (1 μg·ml-1), LPS (1 μg·ml-1)+curcumin (10 μg·ml-1), LPS (1 μg·ml-1)+5-MTHF-Ca (10 μg·ml-1); experimental group: LPS (1 μg·ml-1)+curcumin (5 μg·ml-1)+5-MTHF-Ca (5 μg·ml-1). After 24 h, the culture supernatant was collected, and the cytokines IL-6, IL-1β and TNF-α were detected by ELISA.

In assay [4] the test system is intestinal barrier function. The conditions noted are these: chronic alcohol-fed rats, 4 mg·Kg−1. The method, then:
96 SPF-grade SD rats, half female and half male, were chosen with an average weight of 176-220 g at the beginning of the experiment, and randomly divided into vehicle control group (glucose, 10 g·Kg−1) and model control group (liquor, 6 g·Kg−1), 5-methyltetrahydrofolate calcium group (folic acid, 4 mg·Kg−1, glucose, 10 g·Kg−1), half female and half, 16 rats in each group. […] The day on which the dose of alcohol reached 6g·Kg−1 was defined as the first day of modeling. The intestinal permeability of rats was measured at Weeks 2 and 8, then 5 rats were sacrificed at random, blood and liver tissues were taken.
An oral sugar test was carried out to evaluate intestinal permeability. After fasting for 8 h, the rats were given 2.0 ml of sugar solution,
with lactulose (107 mg/kg), mannitol (30 mg/kg), sucralose (15 mg/kg) and sucrose (570 mg/kg). The rats were individually housed in metabolic cages, and urine was collected. The sugar concentration in the urine was determined by gas chromatography. Blood samples were used to analyze endotoxin in serum with Kinetic-QLC kit.

The source of these data is US20220280507A1, “USES OF 5-METHYLTETRAHYDROFOLATE AND ITS COMPOSITION” (Lianyungang Jinkang Hexin Pharmaceutical Co., Ltd., priority 2019, published 2022).

As for 5-methyltetrahydrofolate calcium, the Body weight was 195.64 g in assay [1] (1 mg·kg−1·d−1 ig, Week 0, n=16); 215.16 g in assay [1] (1 mg·kg−1·d−1 ig, Week 1, n=16); 282.30 g in assay [1] (1 mg·kg−1·d−1 ig, Week 2, n=16); 299.34 g in assay [1] (1 mg·kg−1·d−1 ig, Week 3, n=16); 312.99 g in assay [1] (1 mg·kg−1·d−1 ig, Week 4, n=16); 317.48 g in assay [1] (1 mg·kg−1·d−1 ig, Week 5, n=16). The Body weight in assay [1] (1 mg·kg−1·d−1 ig, Week 6, n=16) worked out at 334.47 g; in assay [1] (1 mg·kg−1·d−1 ig, Week 7, n=16), 355.89 g; in assay [1] (1 mg·kg−1·d−1 ig, Week 8, n=16), 375.85 g; in assay [1] (2 mg·kg−1·d−1 ig, Week 0, n=16), 190.85 g; in assay [1] (2 mg·kg−1·d−1 ig, Week 1, n=16), 219.44 g; in assay [1] (2 mg·kg−1·d−1 ig, Week 2, n=16), 274.69 g. Further, the Body weight was determined as 293.12 g in assay [1] (2 mg·kg−1·d−1 ig, Week 3, n=16); 321.78 g in assay [1] (2 mg·kg−1·d−1 ig, Week 4, n=16); 328.10 g in assay [1] (2 mg·kg−1·d−1 ig, Week 5, n=16); 345.05 g in assay [1] (2 mg·kg−1·d−1 ig, Week 6, n=16); 352.90 g in assay [1] (2 mg·kg−1·d−1 ig, Week 7, n=16); 383.69 g in assay [1] (2 mg·kg−1·d−1 ig, Week 8, n=16). Moreover, the Body weight amounted to 196.33 g in assay [1] (4 mg·kg−1·d−1 ig, Week 0, n=16); 218.24 g in assay [1] (4 mg·kg−1·d−1 ig, Week 1, n=16); 285.54 g in assay [1] (4 mg·kg−1·d−1 ig, Week 2, n=16); 296.05 g in assay [1] (4 mg·kg−1·d−1 ig, Week 3, n=16); 307.43 g in assay [1] (4 mg·kg−1·d−1 ig, Week 4, n=16); 321.49 g in assay [1] (4 mg·kg−1·d−1 ig, Week 5, n=16). Moreover, the Body weight stood at 349.47 g in assay [1] (4 mg·kg−1·d−1 ig, Week 6, n=16); 372.49 g in assay [1] (4 mg·kg−1·d−1 ig, Week 7, n=16); 392.02 g in assay [1] (4 mg·kg−1·d−1 ig, Week 8, n=16). Moreover, the results for the “TNF-α in hippocampus tissue” value in assay [2] (1 mg·kg−1·d−1 ig 60 d), in assay [2] (2 mg·kg−1·d−1 ig 60 d) and in assay [2] (4 mg·kg−1·d−1 ig 60 d) were 250.39 ± 32.40 μg · g^−1 prot, 241.32 ± 29.32 μg · g^−1 prot and 220.43 ± 24.34 μg · g^−1 prot, respectively. Further, the IL-1β in assay [3] came to 721.45 ± 8.79 pg/mL.

For the compound `CN1c2c([nH]c(N)nc2=O)NCC1CNc1ccc(C(=O)N[C@@H](CCC(=O)O)C(=O)O)cc1` (stereo partly drawn) [5-methyltetrahydrofolate, N-[4-[[(2-amino-1,4,5,6,7,8-hexahydro-4-oxo-5-methyl-(6S), -(6R), and (6R,S)-pteridyl)methyl)amino)toluoyl-glutamic acid], in assay [4], the Intestinal barrier function entry is on record as “can improve intestinal barrier function in the presence of alcohol” and the Serum endotoxin level result is given as “reduce serum endotoxin level”.
